Source: patent US7700619B2, “2-methoxymethyl-3-(3,4-dichlorophenyl)-8-azabicyclo[3.2.1]octane tartrate salts” (Neurosearch A/S, priority 2003, dated 2010)

Experiment: Physical stability of the polymorphic form on repeated preparation
Type: physicochemical
Details: successive preparations of Form IV turned out as mixtures of Form IV and Form III
Description: The form was prepared by suspending a freshly prepared Form II in water free ethanol. Separation of the suspended matter was conducted after 24 hours and subsequent drying under vacuum.
Form IV can also be obtained from suspension of Form III by the same procedure as described using Form II.
Successive preparations of Form IV turned out as mixtures of Form IV and Form III, indicating difficulties in producing Form IV

With `COC[C@@H]1[C@@H](c2ccc(Cl)c(Cl)c2)C[C@@H]2CC[C@H]1N2.O=C(O)C(O)C(O)C(=O)O` [Form IV, (1R,2R,3S,5S)-2-methoxymethyl-3-(3,4-dichlorophenyl)-8-azabicyclo[3.2.1]octane L-tartrate anhydrate (Form IV)] the “physical stability of the crystal form” value was “physically metastable”.
